Activity calls are given as the source filed them. For most assays here, no stated cut-off is given here; in the data, actives have a measured AC50 and inactives only a lower limit.
Columns and labels:
[1] = inhibitors of PGC1a acetylation in cells, dose response, cell-based, cherry-picked samples (AID 720514); assay type: functional;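 further: potency may reflect raised or lowered acetylation signal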
[2] = HepG2 cell cytotoxicity, dose response, cytotoxicity control for Shn3 inhibitor project, CellTiter-Glo, cherry-picked (AID 624134); assay type: functional, cell-based
INS1 = assay: beta cell apoptosis inhibitors, cytokine rescue, dose response, luminescence, retest (AID 449756); assay type: functional, cell-based; conditions: Rattus norvegicus;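 further: cell death triggered by IL-1 beta plus TNF-alpha plus IFN-gamma mixture; protective hits raise ATP signal compared with cytokine alone wells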
[3] = reduction of Shn3 3'UTR firefly luciferase signal, dose response, Schnurri-3 inhibitor project, cell-based, Clone20 osteoblasts, cherry-pick, set 2 (AID 720490); assay type: functional;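 further: actives lower the luminescence signal as inhibitors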
[4] = control 3'UTR Renilla luciferase suppression, dose response, counter-screen for Shn3 inhibitor project, cell-based, Clone20-Shn3RL, cherry-picked (AID 624133); assay type: functional
[5] = Shn3 3'UTR reporter inhibitors, dose response, cell-based, Clone20 osteoblasts, firefly luciferase, cherry-picked (AID 624132); assay type: functional;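 further: firefly luciferase luminescence from reporter carrying the Shn3 3'UTR in osteoblasts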
[6] = target: NAD-dependent protein deacylase sirtuin-5, mitochondrial (Homo sapiens, UniProt Q9NXA8); assay: SIRT5 desuccinylase inhibitors, dose response, biochemical, fluorescence imaging, cherry-pick, set 5 (AID 720591);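 further: desuccinylation of succinyl peptide AMC substrate read as fluorescence after trypsin release; potency of inhibitors that lower fluorescence and may act on trypsin instead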
Chain of NAD-dependent protein deacylase sirtuin-5, mitochondrial (Q9NXA8 whole entry): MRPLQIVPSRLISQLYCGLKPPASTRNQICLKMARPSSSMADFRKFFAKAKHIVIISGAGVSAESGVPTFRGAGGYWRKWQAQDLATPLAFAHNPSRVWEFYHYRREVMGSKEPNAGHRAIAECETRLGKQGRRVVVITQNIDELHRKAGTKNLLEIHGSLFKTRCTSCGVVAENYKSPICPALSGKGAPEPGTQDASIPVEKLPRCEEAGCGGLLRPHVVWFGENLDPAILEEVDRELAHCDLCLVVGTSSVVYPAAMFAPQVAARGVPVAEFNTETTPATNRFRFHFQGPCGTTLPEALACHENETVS

[7] = inhibitors of CMV-promoter luciferase reporter, dose response, counter-screen for Pax8 inhibitor project, cell-based, HEK293, luminescence, dry powder (AID 743020); assay type: functional
H9c2 = assay: cells; assay type: functional, cell-based; conditions: Rattus norvegicus, H9c2, Myocardium;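 further: confirmatory concentration-response retest of ultra-high-throughput screening hits for modulation of myocardial damage; cell death induced by hydrogen peroxide oxidative stress; compound pretreatment for 60 min then peroxide exposure for 2 h; potency is for protecting the cells against peroxide damage rather than for killing them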
HeLa = assay: HeLa cell cytotoxicity, dose response, cytotoxicity control, ATP luminescence, cherry-pick samples (AID 687004); assay type: functional, cell-based; conditions: Homo sapiens

SMILES: O=C(Nc1cc(S(=O)(=O)N2CCOCC2)ccc1Cl)c1cc([N+](=O)[O-])ccc1Cl
- AC50 [1]: 13 µM (active)

SMILES: Cc1ccc(NC(=O)c2cc(S(=O)(=O)NCCC3=CCCCC3)ccc2F)cc1F
- AC50 [2]: 41.5 µM (active)
- AC50 (INS1): 3.03 µM (active)
- AC50 [3]: 3.83 µM (active)
- AC50 [4]: 46.1 µM (active)
- AC50 [5]: 4.13 µM (active)

SMILES: CS(=O)(=O)N(CC(=O)N1CCCCC1)c1cccc(F)c1
- AC50 [6]: 29.7 µM (active)

SMILES: O=C(Cc1cccc(NC(=O)C2CCCN(C(=O)C3CCCC3)C2)c1)Nc1cccc(C(=O)N2CCOCC2)c1 (stereo unspecified)
- AC50 [6]: > 30 µM (inactive)

SMILES: CCCCC(=O)N1CCN(c2ccc(OC)cc2[N+](=O)[O-])CC1
- AC50 [7]: < 21.5 µM (active)

SMILES: CS(=O)(=O)c1ccc(-c2cnc3c(NC=O)cc(-c4ccsc4)cn23)cc1
- IC50 (H9c2): 4.99 µM (active)
- AC50 (HeLa): > 52 µM (inactive)
